Legend:
persian speedwell [1] = test: Test Example 5: herbicidal effect by foliage application, plastic box (Table 20, symbol R); type: in vivo, Persian speedwell (Veronica persica)
How it was run: (§1)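 Sow seeds spot-wise in sterilized diluvial soil; cover with ~1.5 cm soil. Grow 14 days in greenhouse, 25° C. to 30° C. Spray foliage with emulsion diluted to predetermined amount. Rate effect after 3 weeks.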

redroot pigweed [2] = test: Test Example 5: herbicidal effect by foliage application, plastic box (Table 20, symbol N); type: in vivo, redroot pigweed (Amaranthus retroflexus)
How it was run: as §1

southern crabgrass [3] = test: Test Example 4: herbicidal effect by soil treatment (Table 19, symbol F); type: in vivo, southern crabgrass (Digitaria ciliaris)
How it was run: (§2)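 Applied as a water-diluted emulsion, the compound was sprayed onto soil covering newly sown seeds. Evaluation came three weeks after application, in a greenhouse held at 25° C. to 30° C.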

Italian ryegrass [4] = test: Test Example 5: herbicidal effect by foliage application, plastic box (Table 20, symbol K); type: in vivo, Italian ryegrass (Lolium multiflorum)
How it was run: as §1

chickweed [5] = test: Test Example 5: herbicidal effect by foliage application, plastic box (Table 20, symbol P); type: in vivo, common chickweed (Stellaria media)
How it was run: as §1

barnyard grass [6] = test: Test Example 5: herbicidal effect by foliage application, plastic box (Table 20, symbol H); type: in vivo, barnyard grass (Echinochloa crus-galli)
How it was run: as §1

lambsquarters [7] = test: Test Example 4: herbicidal effect by soil treatment (Table 19, symbol O); type: in vivo, lambsquarters (Chenopodium album)
How it was run: as §2

oval-leafed pondweed = test: Test Example 2: herbicidal activity, application during weed generation under submerged conditions (Table 17, symbol C); type: in vivo, oval-leafed pondweed (Monochoria vaginalis); conditions: AAH 320 g/ha; application during weed generation, submerged conditions
How it was run: (§3)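 Herbicide emulsion, diluted with water to the chosen amount, is applied onto 4 cm floodwater over alluvial soil where the weeds were co-sown and raised at 25–30° C. Application timing: 1–2 leaves. Assessment: three weeks afterwards.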

velvetleaf [8] = test: Test Example 4: herbicidal effect by soil treatment (Table 19, symbol M); type: in vivo, velvetleaf (Abutilon theophrasti)
How it was run: as §2

velvetleaf [9] = test: Test Example 5: herbicidal effect by foliage application, plastic box (Table 20, symbol M); type: in vivo, velvetleaf (Abutilon theophrasti)
How it was run: as §1

rice flat sedge = test: Test Example 3: herbicidal effect by foliage application, Wagner pot (Table 18, symbol E); type: in vivo, rice flat sedge (Cyperus iria); conditions: 320 g/ha
How it was run: (§4)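 Plants were sown in alluvial soil held under 0.1–0.5 cm standing water and grown 14 days in a greenhouse at 25–30 °C. An emulsifiable formulation, water-diluted to the set dose, was then sprayed onto the foliage, and effects were scored three weeks later using previously defined criteria.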

southern crabgrass [10] = test: Test Example 5: herbicidal effect by foliage application, plastic box (Table 20, symbol F); type: in vivo, southern crabgrass (Digitaria ciliaris)
How it was run: as §1

lambsquarters [11] = test: Test Example 5: herbicidal effect by foliage application, plastic box (Table 20, symbol O); type: in vivo, lambsquarters (Chenopodium album)
How it was run: as §1

green foxtail [12] = test: Test Example 5: herbicidal effect by foliage application, plastic box (Table 20, symbol G); type: in vivo, green foxtail (Setaria viridis)
How it was run: as §1

blackgrass [13] = test: Test Example 4: herbicidal effect by soil treatment (Table 19, symbol J); type: in vivo, blackgrass (Alopecurus myosuroides)
How it was run: as §2

wild oat [14] = test: Test Example 5: herbicidal effect by foliage application, plastic box (Table 20, symbol I); type: in vivo, wild oat (Avena fatua)
How it was run: as §1

Chinese sprangletop = test: Test Example 3: herbicidal effect by foliage application, Wagner pot (Table 18, symbol D); type: in vivo, chinese sprangletop (Leptochloa chinensis); conditions: 320 g/ha
How it was run: as §4

wild oat [15] = test: Test Example 4: herbicidal effect by soil treatment (Table 19, symbol I); type: in vivo, wild oat (Avena fatua)
How it was run: as §2

Japanese bulrush = test: Test Example 2: herbicidal activity, application during weed generation under submerged conditions (Table 17, symbol B); type: in vivo, Japanese bulrush (Schoenoplectus juncoides); conditions: AAH 320 g/ha; application during weed generation, submerged conditions
How it was run: as §3

Italian ryegrass [16] = test: Test Example 4: herbicidal effect by soil treatment (Table 19, symbol K); type: in vivo, Italian ryegrass (Lolium multiflorum)
How it was run: as §2

windgrass [17] = test: Test Example 5: herbicidal effect by foliage application, plastic box (Table 20, symbol L); type: in vivo, windgrass (Apera spica-venti)
How it was run: as §1

late watergrass = test: Test Example 2: herbicidal activity, application during weed generation under submerged conditions (Table 17, symbol A); type: in vivo, late watergrass (Echinochloa oryzicola); conditions: AAH 320 g/ha; application during weed generation, submerged conditions
How it was run: as §3

blackgrass [18] = test: Test Example 5: herbicidal effect by foliage application, plastic box (Table 20, symbol J); type: in vivo, blackgrass (Alopecurus myosuroides)
How it was run: as §1

chickweed [19] = test: Test Example 4: herbicidal effect by soil treatment (Table 19, symbol P); type: in vivo, common chickweed (Stellaria media)
How it was run: as §2

windgrass [20] = test: Test Example 4: herbicidal effect by soil treatment (Table 19, symbol L); type: in vivo, windgrass (Apera spica-venti)
How it was run: as §2

persian speedwell [21] = test: Test Example 4: herbicidal effect by soil treatment (Table 19, symbol R); type: in vivo, Persian speedwell (Veronica persica)
How it was run: as §2

redroot pigweed [22] = test: Test Example 4: herbicidal effect by soil treatment (Table 19, symbol N); type: in vivo, redroot pigweed (Amaranthus retroflexus)
How it was run: as §2

barnyard grass [23] = test: Test Example 3: herbicidal effect by foliage application, Wagner pot (Table 18, symbol H); type: in vivo, barnyard grass (Echinochloa crus-galli); conditions: 320 g/ha
How it was run: as §4

green foxtail [24] = test: Test Example 4: herbicidal effect by soil treatment (Table 19, symbol G); type: in vivo, green foxtail (Setaria viridis)
How it was run: as §2

barnyard grass [25] = test: Test Example 4: herbicidal effect by soil treatment (Table 19, symbol H); type: in vivo, barnyard grass (Echinochloa crus-galli)
How it was run: as §2

[26] = 320 g/ha, foliage application after 14-day growth, evaluated three weeks after application
[27] = amount of applied herbicide 320 g/ha
[28] = foliage application, AAH 320 g/ha, three weeks after application

CCCC(=O)Oc1c(C)nn(C)c(=O)c1-c1c(-c2ccc(F)cc2)sc2c(Cl)cccc12 [4-016]
herbicidal effect on R: persian speedwell (evaluation grade 0-5) (persian speedwell [1]; [26]): 3 (Herbicidal rate of 40% or more and less than 70%)
herbicidal effect on N: redroot pigweed (evaluation grade 0-5) (redroot pigweed [2]; [26]): 3 (Herbicidal rate of 40% or more and less than 70%)
Herbicidal effect by soil treatment, F: southern crabgrass (southern crabgrass [3]; [27]): 2 (Herbicidal rate of 20% or more and less than 40%)
herbicidal effect on K: Italian ryegrass (evaluation grade 0-5) (Italian ryegrass [4]; [26]): 0 (Herbicidal rate of 5% or less (almost no effect))
herbicidal effect on P: chickweed (evaluation grade 0-5) (chickweed [5]; [26]): 5 (Herbicidal rate of 90% or more (almost completely withered))
herbicidal effect on H: barnyard grass (evaluation grade 0-5) (barnyard grass [6]; [26]): 0 (Herbicidal rate of 5% or less (almost no effect))
Herbicidal effect by soil treatment, O: lambsquarters (lambsquarters [7]; [27]): 1 (Herbicidal rate of 5% or more and less than 20%)
herbicidal effect rating, C: oval-leafed pondweed (oval-leafed pondweed): 0 (Herbicidal rate of 5% or less (almost no effect))
Herbicidal effect by soil treatment, M: velvetleaf (velvetleaf [8]; [27]): 0 (Herbicidal rate of 5% or less (almost no effect))
herbicidal effect on M: velvetleaf (evaluation grade 0-5) (velvetleaf [9]; [26]): 5 (Herbicidal rate of 90% or more (almost completely withered))
herbicidal effect on rice flat sedge (E) (rice flat sedge): 4 (Herbicidal rate of 70% or more and less than 90%)
herbicidal effect on F: southern crabgrass (evaluation grade 0-5) (southern crabgrass [10]; [26]): 0 (Herbicidal rate of 5% or less (almost no effect))
herbicidal effect on O: lambsquarters (evaluation grade 0-5) (lambsquarters [11]; [26]): 1 (Herbicidal rate of 5% or more and less than 20%)
herbicidal effect on G: green foxtail (evaluation grade 0-5) (green foxtail [12]; [26]): 0 (Herbicidal rate of 5% or less (almost no effect))
Herbicidal effect by soil treatment, J: blackgrass (blackgrass [13]; [27]): 0 (Herbicidal rate of 5% or less (almost no effect))
herbicidal effect on I: wild oat (evaluation grade 0-5) (wild oat [14]; [26]): 3 (Herbicidal rate of 40% or more and less than 70%)
herbicidal effect on Chinese sprangletop (D) (Chinese sprangletop): 5 (Herbicidal rate of 90% or more (almost completely withered))
Herbicidal effect by soil treatment, I: wild oat (wild oat [15]; [27]): 0 (Herbicidal rate of 5% or less (almost no effect))
herbicidal effect rating, B: Japanese bulrush (Japanese bulrush): 0 (Herbicidal rate of 5% or less (almost no effect))
Herbicidal effect by soil treatment, K: Italian ryegrass (Italian ryegrass [16]; [27]): 0 (Herbicidal rate of 5% or less (almost no effect))
herbicidal effect on L: windgrass (evaluation grade 0-5) (windgrass [17]; [26]): 5 (Herbicidal rate of 90% or more (almost completely withered))
herbicidal effect rating, A: late watergrass (late watergrass): 2 (Herbicidal rate of 20% or more and less than 40%)
herbicidal effect on J: blackgrass (evaluation grade 0-5) (blackgrass [18]; [26]): 0 (Herbicidal rate of 5% or less (almost no effect))
Herbicidal effect by soil treatment, P: chickweed (chickweed [19]; [27]): 1 (Herbicidal rate of 5% or more and less than 20%)
Herbicidal effect by soil treatment, L: windgrass (windgrass [20]; [27]): 0 (Herbicidal rate of 5% or less (almost no effect))
Herbicidal effect by soil treatment, R: persian speedwell (persian speedwell [21]; [27]): 0 (Herbicidal rate of 5% or less (almost no effect))
Herbicidal effect by soil treatment, N: redroot pigweed (redroot pigweed [22]; [27]): 3 (Herbicidal rate of 40% or more and less than 70%)
herbicidal effect on barnyard grass (H) (barnyard grass [23]): 3 (Herbicidal rate of 40% or more and less than 70%)
Herbicidal effect by soil treatment, G: green foxtail (green foxtail [24]; [27]): 3 (Herbicidal rate of 40% or more and less than 70%)
Herbicidal effect by soil treatment, H: barnyard grass (barnyard grass [25]; [27]): 1 (Herbicidal rate of 5% or more and less than 20%)

Cc1nn(C)c(=O)c(-c2c(-c3ccc(OCc4cnc(Cl)s4)cc3)sc3ccccc23)c1O [1-144]
R: persian speedwell, herbicidal effect (persian speedwell [1]; [28]): 5 (Herbicidal rate of 90% or more (almost completely withered))
N: redroot pigweed, herbicidal effect (redroot pigweed [2]; [28]): 3 (Herbicidal rate of 40% or more and less than 70%)
F: southern crabgrass, herbicidal effect rating (southern crabgrass [3]; AAH 320 g/ha): 0 (Herbicidal rate of 5% or less (almost no effect))
K: Italian ryegrass, herbicidal effect (Italian ryegrass [4]; [28]): 4 (Herbicidal rate of 70% or more and less than 90%)
P: chickweed, herbicidal effect (chickweed [5]; [28]): 5 (Herbicidal rate of 90% or more (almost completely withered))
H: barnyard grass, herbicidal effect (barnyard grass [6]; [28]): 5 (Herbicidal rate of 90% or more (almost completely withered))
O: lambsquarters, herbicidal effect rating (lambsquarters [7]; AAH 320 g/ha): 0 (Herbicidal rate of 5% or less (almost no effect))
herbicidal effect rating, C: oval-leafed pondweed (oval-leafed pondweed): 0 (Herbicidal rate of 5% or less (almost no effect))
M: velvetleaf, herbicidal effect rating (velvetleaf [8]; AAH 320 g/ha): 0 (Herbicidal rate of 5% or less (almost no effect))
M: velvetleaf, herbicidal effect (velvetleaf [9]; [28]): 2 (Herbicidal rate of 20% or more and less than 40%)
herbicidal effect on E (rice flat sedge), rating 0-5 (rice flat sedge): 5 (Herbicidal rate of 90% or more (almost completely withered))
F: southern crabgrass, herbicidal effect (southern crabgrass [10]; [28]): 5 (Herbicidal rate of 90% or more (almost completely withered))
O: lambsquarters, herbicidal effect (lambsquarters [11]; [28]): 1 (Herbicidal rate of 5% or more and less than 20%)
G: green foxtail, herbicidal effect (green foxtail [12]; [28]): 4 (Herbicidal rate of 70% or more and less than 90%)
J: blackgrass, herbicidal effect rating (blackgrass [13]; AAH 320 g/ha): 1 (Herbicidal rate of 5% or more and less than 20%)
I: wild oat, herbicidal effect (wild oat [14]; [28]): 0 (Herbicidal rate of 5% or less (almost no effect))
herbicidal effect on D (Chinese sprangletop), rating 0-5 (Chinese sprangletop): 3 (Herbicidal rate of 40% or more and less than 70%)
I: wild oat, herbicidal effect rating (wild oat [15]; AAH 320 g/ha): 0 (Herbicidal rate of 5% or less (almost no effect))
herbicidal effect rating, B: Japanese bulrush (Japanese bulrush): 0 (Herbicidal rate of 5% or less (almost no effect))
K: Italian ryegrass, herbicidal effect rating (Italian ryegrass [16]; AAH 320 g/ha): 3 (Herbicidal rate of 40% or more and less than 70%)
L: windgrass, herbicidal effect (windgrass [17]; [28]): 5 (Herbicidal rate of 90% or more (almost completely withered))
herbicidal effect rating, A: late watergrass (late watergrass): 2 (Herbicidal rate of 20% or more and less than 40%)
J: blackgrass, herbicidal effect (blackgrass [18]; [28]): 5 (Herbicidal rate of 90% or more (almost completely withered))
P: chickweed, herbicidal effect rating (chickweed [19]; AAH 320 g/ha): 3 (Herbicidal rate of 40% or more and less than 70%)
L: windgrass, herbicidal effect rating (windgrass [20]; AAH 320 g/ha): 0 (Herbicidal rate of 5% or less (almost no effect))
R: persian speedwell, herbicidal effect rating (persian speedwell [21]; AAH 320 g/ha): 3 (Herbicidal rate of 40% or more and less than 70%)
N: redroot pigweed, herbicidal effect rating (redroot pigweed [22]; AAH 320 g/ha): 0 (Herbicidal rate of 5% or less (almost no effect))
herbicidal effect on H (barnyard grass), rating 0-5 (barnyard grass [23]): 5 (Herbicidal rate of 90% or more (almost completely withered))
G: green foxtail, herbicidal effect rating (green foxtail [24]; AAH 320 g/ha): 0 (Herbicidal rate of 5% or less (almost no effect))
H: barnyard grass, herbicidal effect rating (barnyard grass [25]; AAH 320 g/ha): 0 (Herbicidal rate of 5% or less (almost no effect))

Source: patent publication US20230085307A1, “PYRIDAZINONE COMPOUND AND HERBICIDE” (NISSAN CHEMICAL CORPORATION, priority 2019, published 2023)
